Assays:
JAM-A (CD321) = assay: Flow cytometry of JAM-A (CD321) on the surface of HMEC-1 cells; format: cell-based, human; conditions: Tβ4 200 nM, TGF-β1 10 ng/ml or TNF-α 10 ng/mL, 24 hours
Source text: For the detection of JAM-A surface expression the cells were labeled with FITC anti-human CD321 (F11R) Mouse IgG1 Antibody (BioLegend, San Diego, Calif., USA) or with the FITC Mouse IgG1 Isotype Control Antibody (BioLegend) for the negative control. Labeled cells were washed to remove unbound antibodies, harvested with ice cold EDTA/PBS, fixed with BD CellFix (Becton Dickinson. Franklin Lakes, N.J., USA) and subsequently analyzed by FACS Canto II flow cytometer (Becton Dickinson). Upon excitation at 488 nm with an argon laser the emission of the fluorescence was recorded through selective band pass filter at 517 nm. Data were recorded with DIVA software, version 6.0 (Becton Dickinson) and subsequently analyzed using FCSalyzer software, version 0.9.14-alpha (https://sourceforge.net/projects/fcsalyzer/).

JAM-A mRNA = assay: RT-PCR of JAM-A mRNA in HMEC-1 cells; format: cell-based, human; conditions: Tβ4 200 nM or TGF-β1 10 ng/mL
JAM-A = assay: Western blot of JAM-A protein in HMEC-1 cells; format: cell-based, human; conditions: Tβ4 200 nM or TGF-β1 10 ng/mL, 24-hours incubation
Procedure: The cells were lysed with lysis buffer (1% Triton X-100 and 0.1% SDS in PBS) supplemented with Halt Protease Inhibitor Cocktail (Thermo Scientific, Waltham, Mass., USA). For the equalization between the samples before the semi-quantitative analyses the protein content of lysates was determined with the BCA Protein Assay Kit according to the manufacturer's protocol (Thermo Scientific). Cell lysate aliquots at a protein content of 50 μg per sample were boiled with 5× concentrated loading buffer (final concentrations: 50 mM Tris-HCl, pH 6.8, 8% glycerol, 2% SDS, 5% β-mercaptoethanol, 0.002% bromophenol blue), separated under reducing conditions on 4-20% gradient SDS-PAGE gels (Bio-Rad) and electroblotted (120 min, 200 mA, 4° C.) onto polyvinylidene difluoride (PVDF) membranes (Bio-Rad). The membranes were washed with Tris-buffered saline (TBS) and blocked for 2 hours with TBS containing 5% nonfat dry milk at room temperature. Then, the membranes were incubated overnight at 4° C. with an appropriate amount of primary antibody diluted in TBS containing 0.05% Tween 20 (TBST). The following primary antibodies were used: monoclonal rabbit anti-JAM-A (Abcam, Cambridge, UK) at a dilution of 1:500 and monoclonal mouse anti-GAPDH (R&D Systems, Minneapolis, Minn., USA) at a dilution of 1:1000. The membranes were washed several times with TBST and incubated for 1 hour at room temperature with the corresponding polyclonal anti-rabbit and anti-mouse HRP-conjugated secondary antibodies (Santa Cruz Biotechnology, Dallas, Tex., USA) at a 1:5000 dilution in TBST. Following the subsequent washes with TBST the membranes were further processed for chemiluminescent detection using Westar TiC ECL Substrate (Cyanagen, Bologna, Italy) and the images were documented by ChemiDoc MP Imager (Bio-Rad).

soluble JAM-A = assay: ELISA of JAM-A antigen in plasma, murine 4T1 breast cancer model; format: in vivo, mouse; conditions: 4T1 tumor-bearing BALB/c mice and control littermates; Tβ4 15 μg/kg or TGF-β1 5 μg/kg i.p., 21 days
Procedure: All in vivo experiments were carried on female BALB/c mice aged 8 to 12 weeks purchased from Animal House of Institute of Biology, University of Bialystok (Bialystok, Poland). The mice were housed under standard conditions at the Animal House of the Medical University of Lodz (Lodz, Poland). All animal procedures and protocols were conducted in accordance with the Guide for the Care and Use of Laboratory Animals of the National Animal Care Committee and were approved by Local Ethical Committee for Animal Research in Lodz (license number 9/LB51/2017 from Jun. 2, 2017). All efforts were made to minimize animal suffering.
Murine 4T1 cells were purchased from the American Type Culture Collection (ATCC, Manassas, Va., USA). The cells were maintained in RPMI-1640 (ATCC) with 10/o fetal bovine serum (FBS) and cultured in tissue culture flasks to 80% confluence. […]
The unbound biotinylated antibody was washed away and HRP-conjugated streptavidin was added to the wells. […] Regarding the both protocols, the enzyme-substrate (HRP-TMB) reaction was terminated by the addition of a sulfuric acid solution and the color change was measured spectrophotometrically at a wavelenght of 450 nm using the Wallac 1420 VICTOR2 Multilabel Counter (PerkinElmer). The concentration of target antigen in the samples was determined by comparing the optical density of the samples to the standard curve.

Row | Substance | JAM-A (CD321) level on the cell surface (JAM-A (CD321)) | JAM-A expression on mRNA level (JAM-A mRNA) | level of JAM-A protein (JAM-A) | JAM-A level in plasma (soluble JAM-A)
1 | tumor necrosis factor-α [TNF-α] | triggered a minor increase of CD321 expression |  |  | 
2 | Transforming growth factor-β1 [TGF-β1] | slightly decreased JAM-A level on the membrane of HMEC-1 cells | no observed changes of JAM-A expression on mRNA level | evidently reduced the level of JAM-A protein | decreased the JAM-A plasma level

Source: patent US10537610B1, “Peptide for inhibition of cancer” (priority 2018, dated 2020)
